Reference: patent US20250268736A1, “VASCULAR STENT AND MANUFACTURING PROCESS THEREFOR” (THE SECOND AFFILIATED HOSPITAL OF GUANGZHOU MEDICAL …, priority 2024, published 2025)

Assays:
[1] = tested on: endothelial protein C receptor (EPCR); assay: Western blotting of EPCR expression and EPCR pathway in HCAECs treated with EPCR activators, alone or with rapamycin; format: cell-based, human; conditions: for activation of the EPCR pathway in HCAECs / protein expression of the EPCR in HCAECs: 10 μM APC, 40 μM TR47, 20 μM Parmodulin 2, 24 h; for effect on the rapamycin-induced inhibition of the EPCR in HCAECs: activator in combination with 100 nM rapamycin, 24 h
Method: Specifically, HCAECs are cultured in an EBM-2 (Lonza, CC3156) supplemented with a 3% fetal bovine serum (FBS) and endothelial growth factor supplement mixture (Lonza, CC4176) under standard cell culture conditions (37° C., 5% of CO2), and cells of generations of P3-5 are tested at 70%-80%. HCAECs are treated with 10 μM of APC, 40 μM of TR47 and 20 μM of Parmodulin 2, or each in combination with 100 nM of rapamycin for 24 h, and then, western blotting is performed for testing protein expression.

HCAECs [2] = assay: Growth of HCAECs on coated 316 L stainless steel (stent simulation environment); format: cell-based, human; conditions: PLGA slow-release coating, 48 h; rapamycin 50 μg/mL; activators (APC 50 μg/mL, TR47 40 μM, Parmodulin 2 20 μM) in combination with rapamycin
Method: (§1) The effect of APC on a simulated stent environment of PLGA slow-release coating on a 316 L steel sheet is investigated. Slow-release coatings of a solvent control (tetrahydrofuran, THF) wrapped in poly(lactic-co-glycolic acid) (PLGA 75:25), rapamycin (50 μg/mL), APC (50 μg/mL), 40 μM of TR47, and 20 μM of Parmodulin 2, or each in combination with rapamycin (50 μg/mL) are coated on surfaces of 316 L stainless steel plates respectively.
(§2) After HCAECs are grown on the 316 L stainless steel plate for 48 h, the cell viability is tested by a CCK-8 method, the cell multiplication capacity is tested by an EdU method, and the cell migration capacity is tested by a scratch method. […] Calcein-AM staining is followed by fluorescence microscopy.
(§3) The above cells are inoculated on 316 SS, 316 L SS/Rapamycin, 316 L SS/Rapamycin/APC, 316 L SS/Rapamycin/TR47, and 316 L SS/Rapamycin/Parmodulin 2 in a 24-well plate at a density of 2×10^4 cells/mL. 10 μL of CCK-8 reaction solution is added to a 24-well plate according to CCK-8 instructions, and the optical density value (OD value) is measured at 4 h by a spectrophotometer with a wavelength of 450 nm. For EdU analysis, reagent A is added a medium in a 24-well plate and cultured at 37° C. for 4 h to label EdU, and then, cells are captured with a fluorescence microscope (EVOS FL) according to manufacturer's instructions. […]

HCAECs [3] = assay: CCK-8 viability of HCAECs on coated 316 L stainless steel; format: cell-based, human; conditions: PLGA slow-release coating, 48 h, rapamycin 50 μg/mL, activators in combination with rapamycin
Method: as §1, §2, §3

HCAECs [4] = assay: EdU multiplication of HCAECs on coated 316 L stainless steel; format: cell-based, human; conditions: PLGA slow-release coating, 48 h, rapamycin 50 μg/mL, activators in combination with rapamycin
Method: as §1, §2, §3

HCAECs [5] = assay: Scratch migration of HCAECs on coated 316 L stainless steel; format: cell-based, human; conditions: PLGA slow-release coating, 48 h, scratch method; rapamycin 50 μg/mL; activators in combination with rapamycin
Method: as §1
After HCAECs are grown on the 316 L stainless steel plate for 48 h, the cell viability is tested by a CCK-8 method, the cell multiplication capacity is tested by an EdU method, and the cell migration capacity is tested by a scratch method. The HCAECs are co-cultured with neutrophils (10^6/well) or platelets (5×10^6/well) labeled with 2 μM of PKH-26 for 1 h. Calcein-AM staining is followed by fluorescence microscopy.

platelets on HCAECs = assay: Adhesion of platelets to HCAECs on coated 316 L stainless steel; format: cell-based, human; conditions: PLGA slow-release coating on 316 L steel, co-culture 1 h; activators in combination with rapamycin
Method: as §1, §2, §3

neutrophils on HCAECs = assay: Adhesion of neutrophils to HCAECs on coated 316 L stainless steel; format: cell-based, human; conditions: PLGA slow-release coating on 316 L steel, co-culture 1 h; activators in combination with rapamycin
Method: as §1, §2, §3

[6] = tested on: endothelial protein C receptor (EPCR); assay: Western blotting of EPCR protein expression in HCAECs treated with limus drugs or paclitaxel; format: cell-based, human; conditions: 24 h
Method: (§4) Specifically, HCAECs are cultured in an endothelial cell basal medium (EBM)-2 (Lonza, CC3156) supplemented with a 3% fetal bovine serum (FBS) and endothelial growth factor supplement mixture (Lonza, CC4176) under standard cell culture conditions (37° C., 5% CO2), and P3-5 cells are tested at 70%-80%. Western blotting is performed to test protein expression after HCAECs are treated with rapamycin, zotarolimus, everolimus, and paclitaxel at the doses shown in FIG. 1, or 100 nM of tacrolimus, deforolimus, biolimus A9, and pimecrolimus for 24 h. Alternatively, C57BL6/J mice received rapamycin, zotarolimus, everolimus, and paclitaxel at 2 mg/kg of body weight daily via tail vein injection for 2 weeks, and immunofluorescence observation of tissues is performed.

[7] = tested on: endothelial protein C receptor (EPCR); assay: Immunofluorescence of EPCR in mouse cardiac vessels after tail vein injection; format: in vivo; conditions: C57BL6/J mice, 2 mg/kg daily via tail vein injection for 2 weeks
Method: as §4

[8] = tested on: vascular smooth muscle cells (HCASMCs, HASMCs); assay: CCK-8 cell viability of vascular smooth muscle cells; format: cell-based, human; conditions: APC 10 μM
Method: (§5) Generations 3-5 of primary human coronary artery smooth muscle cells (HCASMCs) are cultured in a growth medium (Cell applications, cat #31-500). Human arterial smooth muscle cells (HASMCs) are cultured in a smooth muscle cell culture medium containing 2% of FBS and 1% of penicillin/streptomycin at 37° C. in a humidified atmosphere containing 5% of CO2. Ad-EC or Ad-EPCR infected the cells for 48 h. APC is 10 μM, and rapamycin is 100 nM. Fluorescence is observed by a microscope. Protein expression is tested by means of western blotting. The cell viability is tested by means of CCK-8, the cell multiplication capacity is observed by means of EdU, and the migration capacity is evaluated by means of Transwel chamber and scratch tests.

[9] = tested on: vascular smooth muscle cells (HCASMCs, HASMCs); assay: EdU cell multiplication of vascular smooth muscle cells; format: cell-based, human; conditions: APC 10 μM
Method: as §5

[10] = tested on: vascular smooth muscle cells (HCASMCs, HASMCs); assay: Transwel chamber and scratch migration tests of vascular smooth muscle cells; format: cell-based, human; conditions: APC 10 μM
Method: as §5

[11] = doses shown in FIG. 1, western blotting

## CCCC(=O)Nc1cccc(NC(=O)c2ccccc2Br)c1 [Parmodulin 2]
[1]
  activation of the EPCR pathway in HCAECs: protectively activate the EPCR pathway
  protein expression of the EPCR in HCAECs: induce protein expression of the EPCR in the cells
  effect on the rapamycin-induced inhibition of the EPCR in HCAECs: antagonize the inhibitory effect of limus drugs such as rapamycin on the EPCR
HCAECs [2]
  growth of HCAECs on 316 L stainless steel: restore
HCAECs [3]
  viability of HCAECs on 316 L stainless steel: restore
HCAECs [4]
  multiplication of HCAECs on 316 L stainless steel: restore
HCAECs [5]
  migration of HCAECs on 316 L stainless steel: restore
Platelets on HCAECs
  adhesion of platelets to surface of ECs: inhibit adhesion
Neutrophils on HCAECs
  adhesion of neutrophils to surface of ECs: inhibit adhesion

## CCOCCO[C@@H]1CC[C@@H](C[C@@H](C)[C@@H]2CC(=O)[C@H](C)/C=C(\C)[C@@H](O)[C@@H](OC)C(=O)[C@H](C)C[C@H](C)/C=C/C=C/C=C(\C)[C@@H](OC)C[C@@H]3CC[C@@H](C)[C@@](O)(O3)C(=O)C(=O)N3CCCC[C@H]3C(=O)O2)C[C@H]1OC [biolimus A9]
[6]; 100 nM, western blotting
  expression of EPCR in HCAECs: inhibit expression of the EPCR in HCAECs

## CO[C@H]1C[C@@H]2CC[C@@H](C)[C@@](O)(O2)C(=O)C(=O)N2CCCC[C@H]2C(=O)O[C@H]([C@H](C)C[C@@H]2CC[C@@H](OP(C)(C)=O)[C@H](OC)C2)CC(=O)[C@H](C)/C=C(\C)[C@@H](O)[C@@H](OC)C(=O)[C@H](C)C[C@H](C)/C=C/C=C/C=C/1C [deforolimus]
[6]; 100 nM, western blotting
  expression of EPCR in HCAECs: inhibit expression of the EPCR in HCAECs

## CO[C@H]1C[C@@H]2CC[C@@H](C)[C@@](O)(O2)C(=O)C(=O)N2CCCC[C@H]2C(=O)O[C@H]([C@H](C)C[C@@H]2CC[C@@H](OCCO)[C@H](OC)C2)CC(=O)[C@H](C)/C=C(\C)[C@@H](O)[C@@H](OC)C(=O)[C@H](C)C[C@H](C)/C=C/C=C/C=C/1C [everolimus]
[6]; [11]
  expression of EPCR in HCAECs: inhibit expression of an EPCR in HCAECs in a concentration-dependent manner
[7]
  expression of EPCR in mouse cardiac vessels: inhibit expression of the EPCR in mouse cardiac vessels

## CC(=O)O[C@H]1C(=O)[C@@]2(C)[C@H]([C@H](OC(=O)c3ccccc3)[C@]3(O)C[C@H](OC(=O)[C@H](O)[C@@H](NC(=O)c4ccccc4)c4ccccc4)C(C)=C1C3(C)C)[C@]1(OC(C)=O)CO[C@@H]1C[C@@H]2O [paclitaxel]
[6]; [11]
  expression of EPCR in HCAECs: inhibit expression of an EPCR in HCAECs in a concentration-dependent manner
[7]
  expression of EPCR in mouse cardiac vessels: inhibit expression of the EPCR in mouse cardiac vessels

## CC[C@@H]1/C=C(\C)C[C@H](C)C[C@H](OC)[C@H]2O[C@@](O)(C(=O)C(=O)N3CCCC[C@H]3C(=O)O[C@H](/C(C)=C/[C@@H]3CC[C@H](Cl)[C@H](OC)C3)[C@H](C)[C@@H](O)CC1=O)[C@H](C)C[C@@H]2OC [pimecrolimus]
[6]; 100 nM, western blotting
  expression of EPCR in HCAECs: inhibit expression of the EPCR in HCAECs

## C=CC[C@@H]1/C=C(\C)C[C@H](C)C[C@H](OC)[C@H]2O[C@@](O)(C(=O)C(=O)N3CCCC[C@H]3C(=O)O[C@H](/C(C)=C/[C@@H]3CC[C@@H](O)[C@H](OC)C3)[C@H](C)[C@@H](O)CC1=O)[C@H](C)C[C@@H]2OC [tacrolimus]
[6]; 100 nM, western blotting
  expression of EPCR in HCAECs: inhibit expression of the EPCR in HCAECs

## CO[C@H]1C[C@@H]2CC[C@@H](C)[C@@](O)(O2)C(=O)C(=O)N2CCCC[C@H]2C(=O)O[C@H]([C@H](C)C[C@@H]2CC[C@H](n3cnnn3)[C@H](OC)C2)CC(=O)[C@H](C)/C=C(\C)[C@@H](O)[C@@H](OC)C(=O)[C@H](C)C[C@H](C)/C=C/C=C/C=C/1C [zotarolimus]
[6]; [11]
  expression of EPCR in HCAECs: inhibit expression of an EPCR in HCAECs in a concentration-dependent manner
[7]
  expression of EPCR in mouse cardiac vessels: inhibit expression of the EPCR in mouse cardiac vessels

## activated protein C [APC]
[1]
  activation of the EPCR pathway in HCAECs: protectively activate the EPCR pathway
  protein expression of the EPCR in HCAECs: induce protein expression of the EPCR in the cells
  effect on the rapamycin-induced inhibition of the EPCR in HCAECs: antagonize the inhibitory effect of limus drugs such as rapamycin on the EPCR
[8]
  cell viability of vascular smooth muscle cells: does not affect
[9]
  multiplication capacity of vascular smooth muscle cells: does not affect
[10]
  migration capacity of vascular smooth muscle cells: does not affect
HCAECs [2]
  growth of HCAECs on 316 L stainless steel: restore
HCAECs [3]
  viability of HCAECs on 316 L stainless steel: restore
HCAECs [4]
  multiplication of HCAECs on 316 L stainless steel: restore
HCAECs [5]
  migration of HCAECs on 316 L stainless steel: restore
Platelets on HCAECs
  adhesion of platelets to surface of ECs: inhibit adhesion
Neutrophils on HCAECs
  adhesion of neutrophils to surface of ECs: inhibit adhesion
